Results from ChEMBL document CHEMBL1148522 (J Med Chem, 2006).

Target: Proto-oncogene tyrosine-protein kinase Src (Homo sapiens, UniProt P12931)
Assay: Inhibition of SRC using polyE4Y as substrate

Proto-oncogene tyrosine-protein kinase Src, sequence (P12931 2-536 limits assumed): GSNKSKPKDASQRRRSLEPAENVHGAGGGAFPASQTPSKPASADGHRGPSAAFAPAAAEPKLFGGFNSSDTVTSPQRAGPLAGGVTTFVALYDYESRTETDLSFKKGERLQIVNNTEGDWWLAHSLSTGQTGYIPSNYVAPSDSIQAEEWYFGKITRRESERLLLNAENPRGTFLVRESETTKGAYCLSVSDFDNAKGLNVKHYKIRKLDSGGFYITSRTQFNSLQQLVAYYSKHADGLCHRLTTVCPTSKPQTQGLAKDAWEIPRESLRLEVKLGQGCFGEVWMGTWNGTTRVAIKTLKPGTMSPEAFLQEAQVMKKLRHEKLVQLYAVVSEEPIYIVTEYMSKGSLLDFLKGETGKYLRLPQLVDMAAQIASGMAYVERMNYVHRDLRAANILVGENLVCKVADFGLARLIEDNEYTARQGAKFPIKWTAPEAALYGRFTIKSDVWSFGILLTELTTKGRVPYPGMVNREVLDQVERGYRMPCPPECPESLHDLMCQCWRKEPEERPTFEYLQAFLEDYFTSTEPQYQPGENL

CC[C@H](C)[C@H](NC(=O)[C@H](CS)NC(C)=O)C(=O)N[C@@H](Cc1ccc(O)cc1)C(=O)N[C@@H](CCCCN)C(=O)N[C@@H](Cc1ccc(NS(C)(=O)=O)cc1)C(=O)N[C@@H](Cc1ccc(O)cc1)C(=O)O
IC50: > 700 µM

CC[C@H](C)[C@H](NC(=O)[C@H](CS)NC(C)=O)C(=O)N[C@@H](Cc1ccc(O)cc1)C(=O)N[C@@H](CCCCN)C(=O)N[C@@H](Cc1ccc(O)cc1)C(=O)N[C@@H](Cc1ccc(N)cc1)C(=O)O
IC50: > 700 µM
